Patent US4927919A, “Chartreusin derivatives and salts thereof” (Ishihara Sangyo Kaisha, Ltd., priority 1985, dated 1990)
Where a name gives a salt, the structure may show the parent alone.

Columns and labels:
[1] = Acute toxicity (LD50, single intravenous administration); parameters: species or system day mice; conditions: mouse, in vivo, mice, single i.v.
Excerpt: In Table 15 are shown acute toxicity values (LD50, mg/kg) in day mice in the case of intravenously administering (once) each of the compounds of this invention in the form of preparations shown in the Preparation Examples shown in Table 16.

[2] = system: L-1210 leukemia cells; experiment: Antitumor activity against L-1210 leukemia cells (i.p. implanted, i.v. drug); type: in vivo, BDF1 mice; conditions: 30-day observation
Procedure: BDF1 mice were implanted intraperitoneally with L-1210 leukemia cells at a rate of 1×10^5 cells/mouse, and each drug to be tested was administered intravenously on the first, fifth and ninth days after the implantation. […] The T/C (%) was calculated in the same manner as aforementioned (1--1).
The drugs tested were suspensions or solutions which prepared by mixing each compound to be tested and a small amount of a surface active agent (e.g., Tween-80), followed by adding thereto physiological saline.

[3] = Intestinal excretion percentage of drugs; type: in vivo; conditions: DDY mice, i.v. 40 mg/kg-b.w., 2 hours
Procedure: Each drug to be tested was administered to DDY mice intravenously at a dose of 40 mg/kg-b.w., and after 2 hours, contents of the small intestine and the large intestine and feces were extracted with a mixed solvent of chloroform and methanol. The extract was concentrated and each compound to be tested was quantitatively determined by high-speed liquid chromatography.
The drug tested was solution which prepared by dissolving the compound No. 17 in a small amount of dimethylacetoamide, followed by adding thereto a small amount of a surface active agent (e.g., Tween-80 ) and physiological saline.

[4] = system: B-16 melanoma; experiment: Antitumor activity against B-16 melanoma (i.v. drug); type: in vivo, BDF1 mice; conditions: 60-day observation
Procedure: BDF1 mice were implanted intraperitoneally with a B-16 melanoma cell suspension in an amount of 0.5 ml/mouse, and each drug to be tested was administered intravenously on the first, fifth and ninth days after the implantion. […] The T/C (%) was calculated in the same manner as aforementioned (1--1).
The B-16 melanoma cell suspension was prepared as follows. Tumor fragment, maintained by subcutaneous passages in C57BL/6 mice, were aseptically removed and passed through a sterile stainless-steel mesh. Thus obtained tumor was dispersed in a culture medium or physiological saline in an amount of 9 ml per 1 g of tumor.

[5] = system: P-388 leukemia cells; experiment: Antitumor activity against P-388 leukemia cells (i.p. implanted, i.v. drug); type: in vivo, BDF1 mice; conditions: i.v., 30-day observation; for response vs control in vivo at 20 mg/kg: dose b: 20 mg/kg/d × 3 (days 1, 5, 9); for response vs control in vivo at 40 mg/kg: dose c: 40 mg/kg/d × 3 (days 1, 5, 9); for response vs control in vivo at 60 mg/kg: dose e: 60 mg/kg/d × 3 (days 1, 5, 9); for response vs control in vivo at 30 mg/kg: dose j: 30 mg/kg/d × 3 (days 1, 5, 9)
Procedure: BDF1 mice were implanted intraperitoneally with P-388 leukemia cells at a rate of 1×10^6 cells/mouse, and each drug to be tested was administered intravenously on the first, fifth and ninth days, or on the first and fifth days after the implantation. […] The T/C (%) was calculated based on the following equation: [formula]
The drugs tested were as follows: solutions prepared by dissolving each of compound Nos. 34, 36 and 43 to 46 in physiological saline; suspension or solutions prepared by dissolving each of compound Nos. 35, 38 and 49 to 55 in dimethylacetamide, followed by adding thereto a small amount of a surface active agent (e.g., Tween-80) and then physiological saline; and suspension or solutions prepared by mixing each of the other compounds and a small amount of a surface active agent (e.g., Tween-80), followed by adding thereto physiological saline.

[6] = Mus musculus, P388, iv, 720 h, read-out: T/C of MST

Row | Compound | LD50 ([1]; Preparation Example 1) [mg/kg] | T/C (%) of MST ([4]; 60 mg/kg × 3 (days 1, 5, 9)) [%] | response vs control in vivo at 20 mg/kg [5, 6] [%] | response vs control in vivo at 40 mg/kg [5, 6] [%] | LD50 ([1]; Preparation Example 2) [mg/kg] | other results
1 | COC1C(O)C(C)OC(OC2C(Oc3cccc4c(OC(=O)c5cc6ccccc6[nH]5)c5c(=O)oc6ccc(C)c7c(=O)oc(c34)c5c67)OC(C)C3OC(c4ccccc4)OC32)C1O (stereo not shown) [Compound 17, 6-O-(2-indolyl-carbonyl)-3',4'-O-benzylidene-chartreusin] | ≥ 60 | 141 | 199 | 255 |  | T/C (%) MST ([2]; 40 mg/kg × 3 (days 1, 5, 9)): 181%; Intestinal excretion percentage [(total amount of excretion/dose) × 100] [3]: 5.4%
2 | COC1C(O)C(C)OC(OC2C(Oc3cccc4c(OC(=O)c5cccn5C)c5c(=O)oc6ccc(C)c7c(=O)oc(c34)c5c67)OC(C)C3OC(c4ccccc4)OC32)C1O (stereo not shown) [Compound 2] |  | 141 | 189 | 230 | ≥ 60 | T/C (%) MST ([2]; 40 mg/kg × 3 (days 1, 5, 9)): 243%
3 | COC1C(O)C(C)OC(OC2C(Oc3cccc4c(OC(=O)c5cccs5)c5c(=O)oc6ccc(C)c7c(=O)oc(c34)c5c67)OC(C)C3OC(c4ccccc4)OC32)C1O (stereo not shown) [Compound 11, 6-O-(2-thienyl-carbonyl)-3',4'-O-benzylidene-chartreusin] |  | 143 | 217 |  | ≥ 60 | 
4 | CCn1cc(C(=O)Oc2c3cccc(OC4OC(C)C5OC(c6ccccc6)OC5C4OC4OC(C)C(O)C(OC)C4O)c3c3oc(=O)c4c(C)ccc5oc(=O)c2c3c54)c(=O)c2ccc(C)nc21 (stereo not shown) [Compound 33, 6-O-{3-(1,4-dihydro-1-ethyl-7-methyl-4-oxo-1,8-naphthyridinyl)-carbonyl}-3',4'-O-benzylidene-chartreusin] | ≥ 40 |  | 218 | 274 |  | T/C (%) of MST ([4]; 40 mg/kg × 3 (days 1, 5, 9)): 142%
5 | COC1C(O)C(C)OC(OC2C(Oc3cccc4c(OC(=O)c5ccco5)c5c(=O)oc6ccc(C)c7c(=O)oc(c34)c5c67)OC(C)C3OC(c4ccccc4)OC32)C1O (stereo not shown) [Compound 6] |  | 159 | 199 | 217 | ≥ 60 | 
6 | COC1C(O)C(C)OC(OC2C(Oc3cccc4c(OC(=O)c5c(-c6ccccc6)noc5C)c5c(=O)oc6ccc(C)c7c(=O)oc(c34)c5c67)OC(C)C3OC(c4ccccc4)OC32)C1O (stereo not shown) [Compound 14, 6-O-{4-(5-methyl-3-phenylisoxazolyl)-carbonyl}-3',4'-O-benzylidene-chartreusin] | ≥ 60 | 143 | 207 | 250 |  | T/C (%) MST ([2]; 40 mg/kg × 3 (days 1, 5, 9)): 208%
7 | COC1C(O)C(C)OC(OC2C(Oc3cccc4c(OC(=O)C=Cc5ccc6c(c5)OCO6)c5c(=O)oc6ccc(C)c7c(=O)oc(c34)c5c67)OC(C)C3OC(c4ccccc4)OC32)C1O (stereo not shown) [Compound 21] |  |  | 131 | 176 | ≥ 40 | 
8 | COC1C(N)C(C)OC(OC2C(Oc3cccc4c(OC(=O)c5cccc(C(F)(F)F)c5)c5c(=O)oc6ccc(C)c7c(=O)oc(c34)c5c67)OC(C)C3OC(c4ccccc4)OC32)C1O (stereo not shown) [Compound 53] |  |  | 131 | 165 |  | LD50 ([1]; Preparation Example 6): ≥ 40 mg/kg
9 | COC1C(O)C(C)OC(OC2C(Oc3cccc4c(OC(=O)c5cc6cc(OCc7ccccc7)ccc6[nH]5)c5c(=O)oc6ccc(C)c7c(=O)oc(c34)c5c67)OC(C)C3OC(c4ccccc4)OC32)C1O (stereo not shown) [Compound 101] |  |  |  |  | ≥ 60 | response vs control in vivo at 60 mg/kg [5, 6]: 191%
10 | CCn1cc(C(=O)Oc2c3cccc(OC4OC(C)C5OC(c6ccccc6)OC5C4OC4OC(C)C(O)C(OC)C4O)c3c3oc(=O)c4c(C)ccc5oc(=O)c2c3c54)c(=O)c2cnc(N3CCNCC3)nc21 (stereo not shown) [Compound 106] | ≥ 60 |  |  |  |  | response vs control in vivo at 60 mg/kg [5, 6]: 244%; response vs control in vivo at 30 mg/kg [5, 6]: 188%
11 | COC1C(O)C(C)OC(OC2C(Oc3cccc4c(OC(=O)C=Cc5ccco5)c5c(=O)oc6ccc(C)c7c(=O)oc(c34)c5c67)OC(C)C3OC(C)(C)OC32)C1O (stereo not shown) [Compound 9] |  |  |  |  |  | LD50 ([1]; Preparation Example 3): ≥ 80 mg/kg; response vs control in vivo at 80 mg/kg ([5]; Mus musculus, P388, iv, 720 h, dose f: 80 mg/kg/d × 3 (days 1, 5, 9), read-out: T/C of MST): 194%
12 | COC1C(N)C(C)OC(OC2C(Oc3cccc4c(OC(=O)C(CN)C(C)C)c5c(=O)oc6ccc(C)c7c(=O)oc(c34)c5c67)OC(C)C3OC(c4ccccc4)OC32)C1O (stereo not shown) [Compound 45] |  |  |  |  |  | LD50 ([1]; Preparation Example 8): ≥ 30 mg/kg; response vs control in vivo at 30 mg/kg [5, 6]: 131%
13 | COC1C(N)C(C)OC(OC2C(Oc3cccc4c(OC(=O)CCCCCNC(=O)C(F)(F)F)c5c(=O)oc6ccc(C)c7c(=O)oc(c34)c5c67)OC(C)C3OC(c4ccccc4)OC32)C1O (stereo not shown) [Compound 37, 6-O-(n-trifluoroacetyl-6-amino-n-hexanoyl)-3',4'-O-benzylidene-4"-epiamino-4"-deoxy-chartreusin hydrochloride] | ≥ 40 |  | 148 | 191 |  | 
14 | COC1C(N)C(C)OC(OC2C(Oc3cccc4c(OC(=O)CCC(C)=O)c5c(=O)oc6ccc(C)c7c(=O)oc(c34)c5c67)OC(C)C3OC(c4ccccc4)OC32)C1O (stereo not shown) [Compound 48] | ≥ 40 |  | 166 | 219 |  | 
15 | COC1C(O)C(C)OC(OC2C(Oc3cccc4c(OC(=O)c5cccs5)c5c(=O)oc6ccc(C)c7c(=O)oc(c34)c5c67)OC(C)C3OC(C)(C)OC32)C1O (stereo not shown) [Compound 10] |  |  |  | 162 |  | LD50 ([1]; Preparation Example 4): ≥ 80 mg/kg; T/C (%) MST ([2]; 80 mg/kg × 3 (days 1, 5, 9)): 140%; T/C of MST ([5]; dose f: 80 mg/kg/d × 3 (days 1, 5, 9)): 207%
16 | COC1C(O)C(C)OC(OC2C(Oc3cccc4c(OC(=O)C5CC(=O)CC(C)(C)O5)c5c(=O)oc6ccc(C)c7c(=O)oc(c34)c5c67)OC(C)C3OC(c4ccccc4)OC32)C1O (stereo not shown) [Compound 32] |  |  |  |  | ≥ 40 | response vs control in vivo at 20 mg/kg/day ([5]; Mus musculus, P388, iv, 720 h, dose b': 20 mg/kg/d × 2 (days 1, 5), read-out: T/C of MST): 185%; response vs control in vivo at 40 mg/kg/day ([5]; Mus musculus, P388, iv, 720 h, dose c': 40 mg/kg/d × 2 (days 1, 5), read-out: T/C of MST): 213%
